Test results taken from article PMC9516332 (Frontiers in Oncology, 2022).
Read-outs that look alike come from different tables or passages of the source.

What was measured:
[1] = biological target: panel of 255 wild-type kinases (Homo sapiens, UniProt P08922); conditions: cited from earlier work
[2] = biological target: panel of 255 wild-type kinases (Homo sapiens, UniProt Q9Y243); conditions: cited from earlier work
[3] = biological target: T1, panel of 255 wild-type kinases (Homo sapiens, UniProt Q13043); conditions: cited from earlier work
T1 sequence (Q13043 1-487): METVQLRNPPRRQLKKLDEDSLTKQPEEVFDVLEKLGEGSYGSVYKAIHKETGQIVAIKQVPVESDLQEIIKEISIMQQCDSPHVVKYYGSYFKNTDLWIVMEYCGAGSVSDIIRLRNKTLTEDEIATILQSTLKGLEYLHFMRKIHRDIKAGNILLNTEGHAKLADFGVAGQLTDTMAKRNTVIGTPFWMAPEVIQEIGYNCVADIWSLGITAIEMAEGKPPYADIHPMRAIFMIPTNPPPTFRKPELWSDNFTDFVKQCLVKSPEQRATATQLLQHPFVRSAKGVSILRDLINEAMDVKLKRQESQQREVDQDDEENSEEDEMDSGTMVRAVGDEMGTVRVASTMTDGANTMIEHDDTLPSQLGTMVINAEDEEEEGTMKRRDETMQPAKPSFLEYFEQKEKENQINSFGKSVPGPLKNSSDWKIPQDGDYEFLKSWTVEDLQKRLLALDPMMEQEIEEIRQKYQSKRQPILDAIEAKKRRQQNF

[4] = biological target: panel of 255 wild-type kinases (Homo sapiens, UniProt P08581); conditions: cited from earlier work
[5] = biological target: panel of 255 wild-type kinases (Homo sapiens, UniProt Q06187); conditions: cited from earlier work
[6] = biological target: panel of 255 wild-type kinases (Homo sapiens, UniProt P31751); conditions: cited from earlier work
[7] = biological target: T2, panel of 255 wild-type kinases (Homo sapiens, UniProt Q13237); conditions: cited from earlier work
T2 sequence (Q13237 1-762): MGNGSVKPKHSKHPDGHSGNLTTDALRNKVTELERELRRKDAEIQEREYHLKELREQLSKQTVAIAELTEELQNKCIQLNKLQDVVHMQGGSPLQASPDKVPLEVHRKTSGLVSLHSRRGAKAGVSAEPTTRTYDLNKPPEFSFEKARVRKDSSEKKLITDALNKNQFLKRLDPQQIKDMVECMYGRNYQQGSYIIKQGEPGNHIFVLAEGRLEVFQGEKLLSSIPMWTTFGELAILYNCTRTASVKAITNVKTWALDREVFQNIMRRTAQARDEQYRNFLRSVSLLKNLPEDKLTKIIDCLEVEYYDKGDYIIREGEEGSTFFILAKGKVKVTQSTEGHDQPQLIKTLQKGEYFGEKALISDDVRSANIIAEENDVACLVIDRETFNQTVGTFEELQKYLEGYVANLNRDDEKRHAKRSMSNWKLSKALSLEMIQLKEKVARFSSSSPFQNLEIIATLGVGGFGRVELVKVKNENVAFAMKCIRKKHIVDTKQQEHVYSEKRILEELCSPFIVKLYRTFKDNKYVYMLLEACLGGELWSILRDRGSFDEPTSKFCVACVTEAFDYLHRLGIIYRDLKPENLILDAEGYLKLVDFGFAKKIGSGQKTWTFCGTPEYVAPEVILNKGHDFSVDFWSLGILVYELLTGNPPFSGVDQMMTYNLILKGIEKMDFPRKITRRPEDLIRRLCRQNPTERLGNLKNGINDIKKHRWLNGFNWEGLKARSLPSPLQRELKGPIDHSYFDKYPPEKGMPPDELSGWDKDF

[8] = biological target: panel of 255 wild-type kinases (Homo sapiens, UniProt Q92918); assay: Kinase panel profiling at 1 µmol/L (MSA or IMAP), percentage inhibition; type: biochemical; conditions: read-out: %-inhibition at 1 µmol/L, HPK1
[9] = kinase ROS, 1 µmol/L single concentration, ref DOI: 10.1158/1535-7163.MCT-18-0877
[10] = AKT3 kinase assay, 1 µmol/L single concentration, ref DOI: 10.1158/1535-7163.MCT-18-0877
[11] = MST1, 1 µmol/L single concentration, ref DOI: 10.1158/1535-7163.MCT-18-0877
[12] = MET, 1 µmol/L single concentration, ref DOI: 10.1158/1535-7163.MCT-18-0877
[13] = BTK kinase assay, 1 µmol/L single concentration, ref DOI: 10.1158/1535-7163.MCT-18-0877
[14] = AKT2 kinase assay, 1 µmol/L single concentration, ref DOI: 10.1158/1535-7163.MCT-18-0877
[15] = CGK2 kinase assay, 1 µmol/L single concentration, ref DOI: 10.1158/1535-7163.MCT-18-0877
[16] = kinase HPK1, 1 µmol/L single concentration
[17] = AKT3 kinase assay, 1 µmol/L single concentration, ref DOI: 10.1371/journal.pone.0092146
[18] = MST1, 1 µmol/L single concentration, ref DOI: 10.1371/journal.pone.0092146
[19] = AKT2 kinase assay, 1 µmol/L single concentration, ref DOI: 10.1371/journal.pone.0092146
[20] = CGK2 kinase assay, 1 µmol/L single concentration, ref DOI: 10.1371/journal.pone.0092146
[21] = kinase ROS, 1 µmol/L single concentration, ref DOI: 10.1371/journal.pone.0092146
[22] = MET, 1 µmol/L single concentration, ref DOI: 10.1371/journal.pone.0092146
[23] = BTK kinase assay, 1 µmol/L single concentration, ref DOI: 10.1371/journal.pone.0092146

Structure (SMILES): CCc1cc2c(cc1N1CCC(N3CCOCC3)CC1)C(C)(C)c1[nH]c3cc(C#N)ccc3c1C2=O [alectinib]
- %-inhibition at 1 µmol/L, ROS [1, 9]: 14%
- %-inhibition AKT3 [2, 10]: -0.889%
- %-inhibition, MST1 [3, 11]: 10%
- %-inhibition, MET [4, 12]: 8%
- %-inhibition BTK [5, 13]: 4.39%
- %-inhibition AKT2 [6, 14]: 0.306%
- %-inhibition CGK2 [7, 15]: 7.53%

Structure (SMILES): Cn1cc(-c2cc3c(N4CCN(c5ncc([C@@](C)(N)c6ccc(F)cc6)cn5)CC4)ncnn3c2)cn1 [avapritinib]
- inhibition at 1 µM [8, 16]: 15%

Structure (SMILES): COc1cc(N2CCC(N3CCN(C)CC3)CC2)ccc1Nc1ncc(Cl)c(Nc2ccccc2P(C)(C)=O)n1 [brigatinib]
- %-inhibition at 1 µmol/L, ROS [1]: 101%
- %-inhibition AKT3 [2]: -0.864%
- %-inhibition, MST1 [3]: 71%
- %-inhibition, MET [4]: 41%
- %-inhibition BTK [5]: 54%
- %-inhibition AKT2 [6]: -1%
- %-inhibition CGK2 [7]: 37%

Structure (SMILES): CNC(=O)c1ccc(-c2cnc3ncc(Cc4ccc5ncccc5c4)n3n2)cc1F [capmatinib]
- inhibition at 1 µM [8]: 0.392%

Structure (SMILES): Cc1cc(Nc2ncc(Cl)c(Nc3ccccc3S(=O)(=O)C(C)C)n2)c(OC(C)C)cc1C1CCNCC1 [ceritinib]
- %-inhibition at 1 µmol/L, ROS [1, 9]: 101%
- %-inhibition AKT3 [2, 10]: -4%
- %-inhibition, MST1 [3, 11]: 17%
- %-inhibition, MET [4, 12]: 16%
- %-inhibition BTK [5, 13]: -1.88%
- %-inhibition AKT2 [6, 14]: -4.7%
- %-inhibition CGK2 [7, 15]: 14%

Structure (SMILES): O=C(c1ccc(F)c(F)c1Nc1ccc(I)cc1F)N1CC(O)([C@@H]2CCCCN2)C1 [cobimetinib]
- %-inhibition at 1 µmol/L, ROS [1, 9]: 3%
- %-inhibition AKT3 [2, 10]: -3.43%
- %-inhibition, MST1 [3, 11]: -9%
- %-inhibition, MET [4, 12]: 7%
- %-inhibition BTK [5, 13]: 4%
- %-inhibition AKT2 [6, 14]: -2.75%
- %-inhibition CGK2 [7, 15]: 0.273%

Structure (SMILES): C[C@@H](Oc1cc(-c2cnn(C3CCNCC3)c2)cnc1N)c1c(Cl)ccc(F)c1Cl [crizotinib]
- %-inhibition AKT3 [2, 17]: -1.83%
- %-inhibition, MST1 [3, 18]: 83%
- %-inhibition AKT2 [6, 19]: -2.67%
- %-inhibition CGK2 [7, 20]: -0.915%

Structure (SMILES): CC(C)(C)c1nc(-c2cccc(NS(=O)(=O)c3c(F)cccc3F)c2F)c(-c2ccnc(N)n2)s1 [dabrafenib]
- %-inhibition at 1 µmol/L, ROS [1, 21]: 8.55%
- %-inhibition, MET [4, 22]: 27%
- %-inhibition BTK [5, 23]: 60%
- %-inhibition CGK2 [7, 20]: -1.38%

Structure (SMILES): CCN1CCN(c2ccc(Nc3cc(N(C)C(=O)Nc4c(Cl)c(OC)cc(OC)c4Cl)ncn3)cc2)CC1 [infigratinib]
- inhibition at 1 µM [8, 16]: 65%

Structure (SMILES): O=C(Nc1cnn2ccc(N3CCC[C@@H]3c3cc(F)ccc3F)nc12)N1CC[C@H](O)C1 [larotrectinib]
- inhibition at 1 µM [8, 16]: 1%

Structure (SMILES): CO[C@@H]1[C@H](N(C)C(=O)c2ccccc2)C[C@H]2O[C@]1(C)n1c3ccccc3c3c4c(c5c6ccccc6n2c5c31)C(=O)NC4 [midostaurin]
- %-inhibition at 1 µmol/L, ROS [1]: 102%
- %-inhibition, MET [4, 12]: 45%
- %-inhibition BTK [5, 13]: 59%

Structure (SMILES): C=CC(=O)Nc1cc(Nc2nccc(-c3cn(C)c4ccccc34)n2)c(OC)cc1N(C)CCN(C)C [osimertinib]
- %-inhibition at 1 µmol/L, ROS [1, 9]: 101%
- %-inhibition AKT3 [2, 10]: -1.74%
- %-inhibition, MST1 [3, 11]: 1.52%
- %-inhibition, MET [4, 12]: 12%
- %-inhibition BTK [5, 13]: 84%
- %-inhibition AKT2 [6, 14]: 2.2%
- %-inhibition CGK2 [7, 15]: 11%

Structure (SMILES): CCN1C(=O)N(c2c(F)c(OC)cc(OC)c2F)Cc2cnc3[nH]c(CN4CCOCC4)cc3c21 [pemigatinib]
- inhibition at 1 µM [8, 16]: 21%

Structure (SMILES): CO[C@]1(C(=O)N[C@@H](C)c2ccc(-n3cc(F)cn3)nc2)CC[C@H](c2nc(C)cc(Nc3cc(C)[nH]n3)n2)CC1 [pralsetinib]
- inhibition at 1 µM [8, 16]: 50%

Structure (SMILES): COc1ccc(CN2C3CC2CN(c2ccc(-c4cc(OCC(C)(C)O)cn5ncc(C#N)c45)cn2)C3)cn1 [selpercatinib]
- inhibition at 1 µM [8, 16]: 8.44%

Structure (SMILES): Cn1cnc2c(F)c(Nc3ccc(Br)cc3Cl)c(C(=O)NOCCO)cc21 [selumetinib]
- inhibition at 1 µM [8, 16]: 9.49%

Structure (SMILES): CC(=O)Nc1cccc(-n2c(=O)n(C3CC3)c(=O)c3c(Nc4ccc(I)cc4F)n(C)c(=O)c(C)c32)c1 [trametinib]
- %-inhibition at 1 µmol/L, ROS [1, 21]: -0.611%
- %-inhibition AKT3 [2, 17]: -5.3%
- %-inhibition, MST1 [3, 18]: -3.74%
- %-inhibition, MET [4, 22]: -2.41%
- %-inhibition BTK [5, 23]: 18%
- %-inhibition AKT2 [6, 19]: -8%
- %-inhibition CGK2 [7, 20]: -2.61%

Structure (SMILES): Cc1cc(Nc2ncnc3ccc(NC4=NC(C)(C)CO4)cc23)ccc1Oc1ccn2ncnc2c1 [tucatinib]
- inhibition at 1 µM [8, 16]: 4%

Structure (SMILES): CCCS(=O)(=O)Nc1ccc(F)c(C(=O)c2c[nH]c3ncc(-c4ccc(Cl)cc4)cc23)c1F [vemurafenib]
- %-inhibition at 1 µmol/L, ROS [1, 21]: 2%
- %-inhibition AKT3 [2, 17]: -0.678%
- %-inhibition, MST1 [3, 18]: 51%
- %-inhibition, MET [4, 22]: 3.67%
- %-inhibition BTK [5, 23]: 2%
- %-inhibition AKT2 [6, 19]: -3%
- %-inhibition CGK2 [7, 20]: -2.26%
